Source: patent US9957271B2, “Substituted bicyclic aza-heterocycles and analogues as sirtuin modulators” (GlaxoSmithKline, LLC, priority 2012, dated 2018)

How the values were obtained:
SIRT1 [1] = molecular target: T1, SIRT1 (Homo sapiens, UniProt Q96EB6); experiment: TAMRA based mass spectrometry assay of SIRT1 activity; type: biochemical; settings: for TAMRA EC1.5 (μM) / TAMRA EC1.5: concentration giving 150% activation of SIRT1; for Emax: percent maximum fold activation, read-out: TAMRA % Fold Act
T1 sequence (Q96EB6 1-747): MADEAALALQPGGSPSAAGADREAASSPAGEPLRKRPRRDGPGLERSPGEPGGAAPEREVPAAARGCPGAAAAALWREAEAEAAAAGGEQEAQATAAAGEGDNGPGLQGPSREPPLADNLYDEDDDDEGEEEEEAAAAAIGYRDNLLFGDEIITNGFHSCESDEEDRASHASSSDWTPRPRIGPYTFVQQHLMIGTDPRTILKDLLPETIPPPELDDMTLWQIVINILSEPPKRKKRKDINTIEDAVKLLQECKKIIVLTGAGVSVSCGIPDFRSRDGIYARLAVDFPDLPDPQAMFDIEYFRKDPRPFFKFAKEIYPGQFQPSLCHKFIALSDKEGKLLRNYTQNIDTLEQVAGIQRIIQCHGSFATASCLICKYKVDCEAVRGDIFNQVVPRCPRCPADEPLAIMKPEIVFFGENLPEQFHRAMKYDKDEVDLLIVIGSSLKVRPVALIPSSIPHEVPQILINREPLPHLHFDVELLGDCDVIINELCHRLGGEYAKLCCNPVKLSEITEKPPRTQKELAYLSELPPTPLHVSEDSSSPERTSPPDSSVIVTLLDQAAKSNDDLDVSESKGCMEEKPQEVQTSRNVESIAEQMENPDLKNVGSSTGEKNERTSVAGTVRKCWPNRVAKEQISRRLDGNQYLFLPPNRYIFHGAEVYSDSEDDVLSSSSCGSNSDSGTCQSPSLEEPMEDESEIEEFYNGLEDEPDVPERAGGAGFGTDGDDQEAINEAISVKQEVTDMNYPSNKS
Outline: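 Recombinant N-terminal His-tagged human SIRT1 (10 nM, E. coli) incubated 25 min at 25 °C with 0.5 μM 5TMR-labelled p53-derived acetyl-peptide and 120 μM βNAD+ in Tris-acetate pH 8 buffer with DTT and 0.05% BSA, compound at varying concentrations. Stopped with formic acid; deacetylated peptide or OAADPR measured by mass spectrometry relative to DMSO controls.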

SIRT1 [2] = molecular target: T1, SIRT1; experiment: Trp mass spectrometry assay of SIRT1 activity; type: biochemical; settings: for Trp EC1.5 (μM) / Trp EC1.5: concentration giving 150% activation of SIRT1; for Emax: percent maximum fold activation, read-out: Trp % Fold Act
Outline: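 His-tagged SIRT1 expressed in E. coli BL21(DE3), 10 nM, incubated 25 min at 25° C. with 0.5 μM Ac-RHKK(Ac)W-NH2 peptide and 120 μM βNAD+ in 50 mM HEPES pH 7.5, […], 1 mM DTT, 0.05% BSA; formic acid stop. OAADPR or deacetylated peptide measured by mass spectrometry; EC1.5 and percent maximum activation versus DMSO control.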

| Structure (SMILES) | TAMRA EC1.5 (μM) (SIRT1 [1]; TAMRA assay) | Emax (SIRT1 [1]; TAMRA assay) | Trp EC1.5 (μM) (SIRT1 [2]; Trp assay) | Emax (SIRT1 [2]; Trp assay) | TAMRA EC1.5 (SIRT1 [1]; TAMRA peptide substrate) | Emax (SIRT1 [1]; TAMRA peptide substrate) | Trp EC1.5 (SIRT1 [2]; Trp peptide substrate) | Emax (SIRT1 [2]; Trp peptide substrate) |
| --- | --- | --- | --- | --- | --- | --- | --- | --- |
| Cc1nc(C(=O)Nc2c(C)nc3ccc(-c4ccccc4Cl)nn23)c(C)s1 [Compound 352] | B (EC1.5 1-25 μM) | < 350% | C (EC1.5>25 μM) | < 350% | – | – | – | – |
| Cc1cnc(C(=O)Nc2c(C)nc3ccc(-c4ccccc4Cl)nn23)s1 [Compound 354] | B (EC1.5 1-25 μM) | < 350% | C (EC1.5>25 μM) | < 350% | – | – | – | – |
| O=C(Nc1ccncn1)c1cnc2ccc(-c3ccccc3OC(F)(F)F)nn12 [Compound 358] | A (EC1.5<1 μM) | ≥ 350% | B (EC1.5 1-25 μM) | ≥ 350% | – | – | – | – |
| O=C(Nc1ccc(F)cn1)c1cnc2ccc(-c3ccccc3OC(F)(F)F)nn12 [Compound 360] | B (EC1.5 1-25 μM) | < 350% | A (EC1.5<1 μM) | < 350% | – | – | – | – |
| Cc1nc2ccc(-c3ccccc3C(F)(F)F)nn2c1NC(=O)c1ccccn1 [Compound 375] | B (EC1.5 1-25 μM) | ≥ 350% | C (EC1.5>25 μM) | < 350% | – | – | – | – |
| Cc1nc2ccc(-c3ccccc3C(F)(F)F)nn2c1NC(=O)c1nccs1 [Compound 380] | B (EC1.5 1-25 μM) | ≥ 350% | C (EC1.5>25 μM) | < 350% | – | – | – | – |
| Cc1c(-c2ccccc2Cl)nn2c(NC(=O)c3cccc(N4CCCC4)n3)cnc2c1C [Compound 386] | A (EC1.5<1 μM) | ≥ 350% | B (EC1.5 1-25 μM) | < 350% | – | – | – | – |
| Cc1c(-c2ccccc2C(F)(F)F)nn2c(C(=O)Nc3cccc(OC[C@H](O)CO)n3)cnc2c1C [Compound 387, (R)-N-(6-(2,3-dihydroxypropoxy)pyridin-2-yl)-7,8-dimethyl-6-(2-(trifluoromethyl)phenyl)imidazo[1,2-b]pyridazine-3-carboxamide] | A (EC1.5<1 μM) | ≥ 350% | A (EC1.5<1 μM) | ≥ 350% | – | – | – | – |
| Cc1ccc(C(=O)Nc2cnc3ccc(-c4ccccc4C(F)(F)F)nn23)cn1 [Compound 393] | B (EC1.5 1-25 μM) | < 350% | C (EC1.5>25 μM) | < 350% | – | – | – | – |
| O=C(Nc1cccnn1)c1cnc2ccc(-c3ccccc3OC(F)(F)F)nn12 [Compound 395] | A (EC1.5<1 μM) | ≥ 350% | A (EC1.5<1 μM) | ≥ 350% | – | – | – | – |
| Cc1cc(NC(=O)c2cnc3ccc(-c4ccccc4OC(F)(F)F)nn23)nc(C)n1 [Compound 398] | – | – | – | – | A (EC1.5<1 μM) | ≥ 350% | B (EC1.5 1-25 μM) | < 350% |
| Cc1cc(NC(=O)c2cnc3ccc(-c4ccccc4C(F)(F)F)nn23)cc(OCC(O)CO)n1 (stereo not drawn) [Compound 406] | – | – | – | – | A (EC1.5<1 μM) | ≥ 350% | A (EC1.5<1 μM) | ≥ 350% |
| Cc1cc(-c2ccccc2C(F)(F)F)nn2c(NC(=O)c3ccccn3)cnc12 [Compound 407, N-(8-methyl-6-(2-(trifluoromethyl)phenyl)imidazo[1,2-b]pyridazin-3-yl)picolinamide] | – | – | – | – | A (EC1.5<1 μM) | ≥ 350% | B (EC1.5 1-25 μM) | ≥ 350% |
| Cc1cc(NC(=O)c2cnc3ccc(-c4ccccc4OCC(O)CO)nn23)cc(C)n1 (stereo not drawn) [Compound 415] | – | – | – | – | A (EC1.5<1 μM) | ≥ 350% | B (EC1.5 1-25 μM) | ≥ 350% |
| Cc1cc(NC(=O)c2cnc3ccc(-c4ccccc4OC(F)(F)F)nn23)cc(C)n1 [Compound 419] | – | – | – | – | A (EC1.5<1 μM) | ≥ 350% | A (EC1.5<1 μM) | ≥ 350% |
| Cc1c(-c2ccccc2C(F)(F)F)nn2c(NC(=O)c3cccc(N4CCCC4)n3)cnc2c1C [Compound 421] | – | – | – | – | A (EC1.5<1 μM) | ≥ 350% | A (EC1.5<1 μM) | ≥ 350% |

The next lines start with the values.

| TAMRA EC1.5 (μM) (SIRT1 [1]; TAMRA assay) | Emax (SIRT1 [1]; TAMRA assay) | Trp EC1.5 (μM) (SIRT1 [2]; Trp assay) | Emax (SIRT1 [2]; Trp assay) | TAMRA EC1.5 (SIRT1 [1]; TAMRA peptide substrate) | Emax (SIRT1 [1]; TAMRA peptide substrate) | Trp EC1.5 (SIRT1 [2]; Trp peptide substrate) | Emax (SIRT1 [2]; Trp peptide substrate) | Structure (SMILES) |
| --- | --- | --- | --- | --- | --- | --- | --- | --- |
| B (EC1.5 1-25 μM) | < 350% | C (EC1.5>25 μM) | < 350% | – | – | – | – | Cc1nc(C(=O)Nc2c(C)nc3ccc(-c4ccccc4Cl)nn23)cs1 [Compound 351] |
| C (EC1.5>25 μM) | < 350% | C (EC1.5>25 μM) | < 350% | – | – | – | – | Cc1nc2ccc(-c3ccccc3Cl)nn2c1NC(=O)c1cccc(OCC(O)CO)n1 (stereo not drawn) [Compound 357] |
| A (EC1.5<1 μM) | ≥ 350% | A (EC1.5<1 μM) | ≥ 350% | – | – | – | – | Cc1cc(NC(=O)c2cnc3ccc(-c4ccccc4OC(F)(F)F)nn23)ccn1 [Compound 364] |
| A (EC1.5<1 μM) | ≥ 350% | B (EC1.5 1-25 μM) | ≥ 350% | – | – | – | – | Cc1cccc(NC(=O)c2cnc3ccc(-c4ccccc4OCC(O)CO)nn23)n1 (stereo not drawn) [Compound 369] |
| A (EC1.5<1 μM) | ≥ 350% | A (EC1.5<1 μM) | < 350% | – | – | – | – | O=C(Nc1cccc(N2CCOCC2)n1)c1cnc2ccc(-c3cccc(OCC(O)CO)c3)nn12 (stereo not drawn) [Compound 372] |
| B (EC1.5 1-25 μM) | < 350% | C (EC1.5>25 μM) | < 350% | – | – | – | – | Cc1nc2ccc(-c3ccccc3C(F)(F)F)nn2c1NC(=O)c1ccncn1 [Compound 377] |
| B (EC1.5 1-25 μM) | ≥ 350% | C (EC1.5>25 μM) | < 350% | – | – | – | – | Cc1cnc(C(=O)Nc2c(C)nc3ccc(-c4ccccc4C(F)(F)F)nn23)s1 [Compound 381] |
| A (EC1.5<1 μM) | ≥ 350% | B (EC1.5 1-25 μM) | ≥ 350% | – | – | – | – | Cc1nc2ccc(-c3ccccc3C(F)(F)F)nn2c1NC(=O)c1cccc(N2CCC2)n1 [Compound 383] |
| A (EC1.5<1 μM) | ≥ 350% | B (EC1.5 1-25 μM) | < 350% | – | – | – | – | Cc1nccc(C(=O)Nc2cnc3ccc(-c4ccccc4C(F)(F)F)nn23)n1 [Compound 389] |
| C (EC1.5>25 μM) | < 350% | C (EC1.5>25 μM) | < 350% | – | – | – | – | Cc1ncccc1C(=O)Nc1cnc2ccc(-c3ccccc3C(F)(F)F)nn12 [Compound 392] |
| – | – | – | – | A (EC1.5<1 μM) | ≥ 350% | A (EC1.5<1 μM) | ≥ 350% | Cc1ccnc(NC(=O)c2cnc3ccc(-c4ccccc4OC(F)(F)F)nn23)n1 [Compound 401] |
| – | – | – | – | A (EC1.5<1 μM) | ≥ 350% | A (EC1.5<1 μM) | ≥ 350% | Cc1nc(C(=O)Nc2cnc3c(C)cc(-c4ccccc4C(F)(F)F)nn23)cs1 [Compound 412] |
| – | – | – | – | A (EC1.5<1 μM) | ≥ 350% | A (EC1.5<1 μM) | < 350% | Cc1nc(C(=O)Nc2cnc3c(C)cc(-c4ccccc4C(F)(F)F)nn23)c(C)s1 [Compound 413] |
| – | – | – | – | B (EC1.5 1-25 μM) | < 350% | C (EC1.5>25 μM) | < 350% | Cc1cc(NC(=O)c2cnc3ccc(-c4cccc(OCC(O)CO)c4)nn23)cc(C)n1 (stereo not drawn) [Compound 418] |
